Source: US20260102472A1, “SEMAGLUTIDE IN MEDICAL THERAPY” (Novo Nordisk A/S, priority 2023, published 2026)

Test system: human subjects with obesity-related heart failure with preserved ejection fraction, and type 2 diabetes
Assay: Randomised, double-blind, placebo-controlled clinical trial of semaglutide in obesity-related HFpEF and type 2 diabetes (Example 2)
Format: in vivo
Settings: for Time to first HF event from randomisation leading to either hospitalisation or an urgent visit, Hazard ratio: Semaglutide 2.4 mg/placebo
Source text: The Kansas City Cardiomyopathy Questionnaire (KCCQ) is a disease-specific health status instrument composed of 23 items that quantify the domains of physical limitation, symptoms, self-efficacy, social limitation, and health-related quality of life limitation from heart failure (available via cvoutcomes.org). The questions of the KCCQ are as published in the appendix of Green et al., JACC 2000; 35 (5): 1245-55:
The Kansas City Cardiomyopathy Questionnaire clinical summary score (KCCQ-CSS) is used for interpretation of the KCCQ and scores range from 0 to 100 where higher scores indicate better function. KCCQ-CSS is calculated as the mean of the available summary scores Physical Limitation Score and Total Symptom Score from the KCCQ. […] “Total Symptom Score” is calculated as the mean of the available summary scores Symptom Frequency Score and Symptom Burden Score. “Symptom Frequency Score” is calculated, if answer to at least two of Questions 3, 5, 7 and 9 are not missing, as 100*(mean of S3, S5, S7 and S9 answered), where S3=[(Question 3)−1]/4, S5=[(Question 5)−1]/6, S7=[(Question 7)−1]/6, and S9=[(Question 9)−1]/4; answers to Question 3 are scored as follows: Every morning=1, 3 or more times a week but not every day=2, 1-2 times a week=3, Less than once a week=4, Never over the past 2 weeks=5; answers to Questions 5 and 7 are scored as follows: All of the time=1, Several times a day=2, At least once a day=3, 3 or more times a week but not every day=4, 1-2 times a week=5, Less than once a week=6, or Never over the past 2 weeks=7; and answers to Question 9 are scored as follows: Every night=1, 3 or more times a week but not every day=2, 1-2 times a week=3, Less than once a week=4, or Never over the past 2 weeks=5. “Symptom Burden Score” is calculated, if answer to at least one of Questions 4, 6 and 8 is not missing, as 100*[(mean of Questions 4, 6 and 8 answered)−1]/4 where answers are scored as follows: Extremely bothersome=1, Quite a bit bothersome=2, Moderately bothersome=3, Slightly bothersome=4, Not at all bothersome=5, or I've had no swelling/fatigue/shortness of breath=5. The term “mean of questions answered” as used herein refers to that for a scale with n in questions where the subject must answer m to score the scale, but the subject answers only n-i, where n-i>=m, then the mean of those questions is calculated as (sum of answers to those n-i questions)/(n-i).
The six minute walk test (6MWT) is a determination of the distance a subject is able to walk over a period of six minutes where the subject traverses, at its own pace and resting as needed, back and forth along a marked walkway of 20 meters with the goal of walking as far as possible without running. The distance obtained from 6MWT is referred to as the six minute walk distance (6MWD). The 6MWT is a direct and timed measure of walking ability, which is technically simple and reproducible.
Heart failure exists in different degrees of severity. The most commonly used classification system of heart failure is the New York Heart Association Functional Classification (also referred to as “NYHA”). NYHA categorises subjects in one of four classes I-IV (Table A), based on their degree of limitation during physical activity, and optionally an additional subgroup A-D based on objective assessments, for further details see The Criteria Committee of the New York Heart Association. Nomenclature and Criteria for Diagnosis of Diseases of the Heart and Great Vessels. 9th ed. Boston, Mass: Little, Brown & Co; 1994:253-256.
A randomised, double-blind, international multicentre, placebo-controlled clinical trial with semaglutide was carried out with 616 human subjects with obesity-related heart failure with preserved ejection fraction, and type 2 diabetes. […]

[1] = pair-wise comparisons vs. placebo, 2.4 mg, type 2 diabetes
[2] = week 0, 2.4 mg once weekly, type 2 diabetes
[3] = week 20, 2.4 mg once weekly, type 2 diabetes
[4] = week 36, 2.4 mg once weekly, type 2 diabetes
[5] = week 52, 2.4 mg once weekly vs. placebo, type 2 diabetes
[6] = week 52, 2.4 mg once weekly vs. placebo, type 2 diabetes, listed as semaglutide
[7] = week 52, 2.4 mg once weekly, type 2 diabetes
[8] = week 52, 2.4 mg once weekly, type 2 diabetes, ANCOVA estimate

N-epsilon26-[2-(2-{2-[2-(2-{2-[(S)-4-Carboxy-4-(17-carboxyheptadecanoyl-amino) butyrylamino]ethoxy}ethoxy) acetylamino]ethoxy}ethoxy) acetyl] [Aib8,Arg34] GLP-1-(7-37) [Semaglutide]
Inflammation (HFpEF, obesity and type 2 diabetes, no data given): reduced inflammation
Time to first HF event from randomisation leading to either hospitalisation or an urgent visit, Hazard ratio (type 2 diabetes): 0.40
Time to first HF event from randomisation leading to either hospitalisation or an urgent visit, Hazard ratio (type 2 diabetes, listed as semaglutide): risk of experiencing a heart failure event was less
Patients improved or with no change in NYHA class compared with placebo (baseline to 52 weeks, type 2 diabetes): more patients treated with semaglutide improved or observed no change in NYHA class
More wins on semaglutide as compared to placebo (hierarchical composite endpoint, type 2 diabetes): 59%
Hierarchical composite endpoint, Loss: All-cause death [1]: 1.9%
Hierarchical composite endpoint, Loss: Change in 6MWD ≥30 meters difference [1]: 4.1%
Hierarchical composite endpoint, Loss: Change in KCCQ-CSS ≥5 points difference [1]: 6.2%
Hierarchical composite endpoint, Loss: Change in KCCQ-CSS ≥10 points difference [1]: 5.0%
Hierarchical composite endpoint, Loss: Change in KCCQ-CSS ≥15 points difference [1]: 18.2%
Hierarchical composite endpoint, Loss: Number of HF events [1]: 1.2%
Hierarchical composite endpoint, Loss: Time-to-first HF event [1]: 0.0%
Hierarchical composite endpoint, Loss: Total [1]: 36.8%
Hierarchical composite endpoint, Proportion of ties [1]: Proportion of ties: 4.5%
Hierarchical composite endpoint, Wins: All-cause death [1]: 2.9%
Hierarchical composite endpoint, Wins: Change in 6MWD ≥30 meters difference [1]: 4.9%
Hierarchical composite endpoint, Wins: Change in KCCQ-CSS ≥5 points difference [1]: 7.3%
Hierarchical composite endpoint, Wins: Change in KCCQ-CSS ≥10 points difference [1]: 6.6%
Hierarchical composite endpoint, Wins: Change in KCCQ-CSS ≥15 points difference [1]: 32.3%
Hierarchical composite endpoint, Wins: Number of HF events [1]: 4.7%
Hierarchical composite endpoint, Wins: Time-to-first HF event [1]: 0.0%
Hierarchical composite endpoint, Wins: Total [1]: 58.7%
Observed KCCQ-CSS mean change from baseline [2]: 0
Observed body weight (%) mean change from baseline [2]: 0%
Observed six minutes walk distance mean change from baseline [2]: 0 meters
Observed body weight (%) mean change from baseline (week 4, dose escalation to 2.4 mg once weekly, type 2 diabetes): −1.8%
Observed body weight (%) mean change from baseline (week 8, dose escalation to 2.4 mg once weekly, type 2 diabetes): −3.1%
Observed body weight (%) mean change from baseline (week 12, dose escalation to 2.4 mg once weekly, type 2 diabetes): −4.5%
Observed body weight (%) mean change from baseline (week 16, dose escalation to 2.4 mg once weekly, type 2 diabetes): −5.8%
Observed KCCQ-CSS mean change from baseline [3]: 11.1
Observed body weight (%) mean change from baseline [3]: −6.6%
Observed six minutes walk distance mean change from baseline [3]: 23.0 meters
Observed body weight (%) mean change from baseline (week 28, 2.4 mg once weekly, type 2 diabetes): −8.0%
Observed KCCQ-CSS mean change from baseline [4]: 14.2
Observed body weight (%) mean change from baseline [4]: −9.1%
Observed body weight (%) mean change from baseline (week 44, 2.4 mg once weekly, type 2 diabetes): −9.8%
Body weight (%) change from baseline to week 52, Treatment difference vs. placebo [5]: −6.4%
Improvement of ≥5 points in KCCQ-CSS, Treatment Odds ratio vs. placebo [5]: 2.29
Improvement of ≥10 points in KCCQ-CSS, Treatment Odds ratio vs. placebo [5]: 2.06
KCCQ-CSS change from baseline to week 52, Treatment difference vs. placebo [5]: 7.3 score
Six minutes walk distance change from baseline to week 52, Treatment difference vs. placebo [5]: 14.3 meters
Body weight (%) change from baseline to week 52, Treatment difference vs. placebo [6]: significantly larger body weight loss
KCCQ-CSS change from baseline to week 52, Treatment difference vs. placebo [6]: significantly larger improvement in KCCQ-CSS
Six minutes walk distance change from baseline to week 52, Treatment difference vs. placebo [6]: significantly larger improvement in six minutes walk distance
NYHA class from baseline to week 52: Improvement [7]: 33.9%
NYHA class from baseline to week 52: No change [7]: 63.7%
NYHA class from baseline to week 52: Worsening [7]: 2.4%
Observed KCCQ-CSS mean change from baseline [7]: 14.4
Observed body weight (%) mean change from baseline [7]: −10.2%
Observed proportion improving ≥5 points from baseline in KCCQ-CSS [7]: 73%
Observed proportion improving ≥10 points from baseline in KCCQ-CSS [7]: 58%
Observed six minutes walk distance mean change from baseline [7]: 18.6 meters
Body weight (%) change from baseline to week 52, Estimate [8]: −9.8%
KCCQ-CSS change from baseline to week 52, Estimate [8]: 13.7 score
Six minutes walk distance change from baseline to week 52, Estimate [8]: 12.7 meters
